Data set [1] can be described thus: Genotoxicity of the by-product. Particulars: by-product of rasagiline drug substance production; no test described.
For data set [2] the following is noted: AZILECT Product Label, May 2006; cited from earlier work.

Regarding `C#CCNC1CC(=O)c2ccccc21` (centres unmarked) [3-keto-N-propargyl-1-aminoindan], the genotoxicity result in data set [1] was “not genotoxic”. Turning to `C#CCN[C@@H]1CCc2ccccc21` [rasagiline, R(+)-N-propargyl-1-aminoindan], the absolute bioavailability result in data set [2] was “about 36%”.

Source of the values: patent US20150045445A1, “3-KETO-N-PROPARGYL-1-AMINOINDAN” (TEVA PHARMACEUTICAL INDUSTRIES, LTD., priority 2009, published 2015).
